Laboratory results reported in patent publication US7419785B2, “Methods and compositions in breast cancer diagnosis and therapeutics” (Baylor College of Medicine, priority 2001, dated 2008).

How the values were obtained:
[1] = test system: MCF-7 breast cancer cells; experiment: Cell growth of untransfected parental MCF-7 cells in response to estradiol; assay type: cell-based, human; details: calculated from the growth curves
Experimental: (§1) The medium was replaced every 48 h and the cells were harvested and counted on days 2, 4, 6, and 8, respectively. Cell number X 10^4 is shown.
(§2) The WT ER expression construct was prepared in the pcDNAI vector as described previously (Fuqua et al., 1995). Site directed mutagenesis of this construct was then utilized to generate the A908G transition and the entire coding sequence of ER was verified by dideoxysequence analysis in this clone. The generation of stable transfectants was performed as described by Oesterreich et al. (1993) using cotransfection with the G418-selectable expression vector pSVneo at a ration of 25:1 with the ER plasmids into MCF-7 breast cancer cells. […] Two to three-fold elevated levels of total ER protein were detected in the two WT ER and the three Var clones. […] Furthermore, the relative levels of WT or Var sequences were determined by genomic sequence analysis as described above; the ER Var transfectants contained both WT nucleotide (A) and Var nucleotide (G) sequence in approximately equal ratios on the sequencing gels.
(§3) The proliferative response to hormones in breast cancer cell transfectants containing the mutation was tested to determine if this ER mutation confers a selective advantage. […] This cell line was chosen because it was determined that WT ERα was expressed along with the mutant in the original 2/4 typical hyperplastic lesions which were examined. […]

[2] = test system: MCF-7 cells stably transfected with the mutant ER (A908G, Lys303Arg); experiment: Cell growth of MCF-7 clones stably transfected with the mutant ER in response to estradiol; assay type: cell-based, human; details: cells expressing the ERα mutant, calculated from the growth curves
Experimental: as §1, §2, §3

[3] = test system: WT ERα and the A908G ERα mutation; experiment: Saturation binding Scatchard analyses; parameters: species or system human
breast cancer = details: patients with a history of ADH receiving tamoxifen (Fisher et al., 1998); cited from earlier work

Row | Compound | doubling time ([1]; MCF-7 cells in 10^−9 M estradiol) | doubling time ([1]; MCF-7 cells in 10^−12 M estradiol) | doubling time ([2]; 10^−9 M of hormone) | doubling time ([2]; 10^−12 M of hormone) | difference in affinity between WT ERα and the A908G ERα mutation [3] | decrease in breast cancer incidence (breast cancer)
1 | C[C@]12CC[C@@H]3c4ccc(O)cc4CC[C@H]3[C@@H]1CC[C@@H]2O [estradiol] | 1.3 days | 2.2 days | 1.3 days | 1.3 days |  | 
2 | CC/C(=C(\c1ccccc1)c1ccc(OCCN(C)C)cc1)c1ccccc1 [tamoxifen] |  |  |  |  | nor were there differences in affinity | 85%
